What all share (format): in vivo, C57BL/6J mice
The test system of experiment [1] is expression levels of the gene (mRNA) associated with lipid synthesis, inflammation, and fibrosis. In words: Liver mRNA expression by qRT-PCR in mouse model of NAFLD induced by STZ administration and high-fat diet (Example 2). To be noted: oral, 1 mg/kg, 3 mg/kg, and mg/kg for 4 weeks; vs Control group; FIG. 4. As to the method: (§1) Furthermore, the relative expression level of mRNA in Normal group was calculated by qRT-PCR. Specifically, the mRNA expression levels of Srebp1 (i.e., a gene marker associated with lipid synthesis), and TIMP1 and Col1a1 (i.e., gene markers associated with fibrosis), etc. were measured through the SYBR-green RT-PCR analysis of the removed liver tissues described above, and the relative expression levels were calculated based on those of Normal group and are shown in FIG. 2. The calculated data were expressed in mean and standard deviation, and the significance of statistical differences between groups was confirmed using Student's t-test (*; p<0.05).
(§2) Two-day-old C57BL/6J mice were administered with streptozotocin (STZ, 200 μg). Since the time the mice were 5 weeks old, they were supplied with a high-fat diet (60% fat) so as to induce NAFLD. […] The steatosis scores and relative mRNA expression levels were calculated in the same manner as in Example 1, and the results are shown in FIGS. 3 and 4, respectively. The calculated results were expressed in mean and standard deviation, and the significance of statistical differences between the groups was confirmed using Student's t-test (*; p<0.05).

Experiment [2] concerns NAFLD-induced mice. In words: Steatosis score (H&E histology) in mouse model of NAFLD induced by high-fat high-cholesterol diet and fructose drinking water (Example 1). The settings on record: high-fat high-cholesterol diet containing 0.016% of compound for 12 weeks; vs Control group; FIG. 1. The text has this:
(§3) Eight-week-old C57BL/6J mice were supplied with a high-fat high-cholesterol diet (60% fat and 0.5% cholesterol) and drinking water containing 4.2% fructose for 16 weeks so as to induce non-alcoholic fatty liver disease (NAFLD).
(§4) After the supply of a high-fat high-cholesterol diet for 4 weeks, the diet was replaced with another high-fat high-cholesterol diet prepared to contain Compound 1 at a concentration of 0.016% and supplied for an additional 12 weeks, and the livers were removed by autopsy on the final day of the test. Parts of the removed livers were fixed in a 10% formalin solution for histopathology and tissue slides were prepared therefrom and subjected to H&E staining, whereas other parts of the removed livers were used for quantitative real-time PCR (qRT-PCR) analysis.
The normal mice (not induced with NAFLD, denoted by “Normal” in drawings) and the mice induced with NAFLD using a high-fat high-cholesterol diet and fructose-containing drinking water (denoted by “Control” in drawings) were used as the control group. […]

Experiment [3] has as its system NAFLD-induced mice. Briefly: Degree of liver fibrosis by Sirius Red staining in STZ and high-fat diet NAFLD mouse model (Example 3). The settings on record: 10 mg/kg; fibrosis area increased by NASH induction; FIG. 6. The method, then: as §2, with “NAFLD. The mouse model is an experimental animal model that is known to be capable of inducing diseases ranging from diabetes, fatty liver, steatohepatitis, liver fibrosis, to liver cancer within a short period of time of 20 weeks of age.” for “NAFLD.”
As in Example 2, vehicle or Compound 1 at a dose of 10 mg/kg was administered to the animal model in which NAFLD was induced by STZ administration and a high-fat diet. […] NAS values were respectively calculated for Normal group, the vehicle group, Compound 1 (10 mg/kg) group, and the two comparative groups (OCA-administered and compound A-administered groups), as shown in Table 2. […] For example, when NAS value is 3 to 4 points, the mouse can be suspected to have non-alcoholic steatohepatitis (NASH), whereas when NAS value is 5 points or higher, the mouse can be determined to have NASH. […]

Experiment [4] relates to NAFLD-induced mice. Briefly: NAFLD activity score (NAS) in mouse model of NAFLD induced by STZ administration and high-fat diet (Example 3). The settings on record: 10 mg/kg; for Steatosis Score 0 (number of mice): score 0 = <5%; for Hepatocyte Ballooning Score 0 (number of mice): score 0 = None; for Steatosis Score 1 (number of mice): score 1 = 5% to 33%; for Lobular Inflammation Score 1 (number of mice): score 1 = <2 Foci/200×; for Hepatocyte Ballooning Score 1 (number of mice): score 1 = Some balloon cells; for Lobular Inflammation Score 2 (number of mice): score 2 = 2 to 4 Foci/200×; for Lobular Inflammation Score 3 (number of mice): score 3 = >4 Foci/200×. As to the method: Two-day-old C57BL/6J mice were administered with streptozotocin (STZ, 200 μg). Since the time the mice were 5 weeks old, they were supplied with a high-fat diet (60% fat) so as to induce NAFLD. The mouse model is an experimental animal model that is known to be capable of inducing diseases ranging from diabetes, fatty liver, steatohepatitis, liver fibrosis, to liver cancer within a short period of time of 20 weeks of age. Specifically, since the time the mice were 6 weeks old, they were orally administered with vehicle (0.5% hydroxypropyl methylcellulose+0.1% Tween 80) or Compound 1, which were prepared at various concentrations, at each concentration of 1 mg/kg, 3 mg/kg, and 10 mg/kg for 4 weeks, and the livers were removed by autopsy on the final day of the test. Parts of the removed livers were fixed in a 10% formalin solution for histopathology and tissue slides were prepared therefrom and subjected to H&E staining, whereas other parts of the removed livers were used for qRT-PCR analysis. The steatosis scores and relative mRNA expression levels were calculated in the same manner as in Example 1, and the results are shown in FIGS. 3 and 4, respectively. The calculated results were expressed in mean and standard deviation, and the significance of statistical differences between the groups was confirmed using Student's t-test (*; p<0.05).
As in Example 2, vehicle or Compound 1 at a dose of 10 mg/kg was administered to the animal model in which NAFLD was induced by STZ administration and a high-fat diet. […] Additionally, two comparative groups were prepared by administering each of obeticholic acid (OCA, product name: Ocaliva) and compound A (having the same mechanism of action with Compound 1) at a dose of 10 mg/kg each, instead of vehicle or Compound 1. NAS values were respectively calculated for Normal group, the vehicle group, Compound 1 (10 mg/kg) group, and the two comparative groups (OCA-administered and compound A-administered groups), as shown in Table 2. NAS represents the sum of the scores for respective symptoms, i.e., steatosis, lobular inflammation, and hepatocyte ballooning, and the scoring for each symptom was based on the criteria described in Table 1 below. Each group consisted of 8 mice, and the NAS value is defined as the sum of the mean scores from each symptom. As NAS value is higher, NAFLD is more severe. For example, when NAS value is 3 to 4 points, the mouse can be suspected to have non-alcoholic steatohepatitis (NASH), whereas when NAS value is 5 points or higher, the mouse can be determined to have NASH.

For experiment [5], the system named is NAFLD-induced mice. Briefly: Steatosis score in mouse model of NAFLD induced by STZ administration and high-fat diet (Example 2). To be noted: oral, FIG. 3. The method, then: The normal mice (not induced with NAFLD, denoted by “Normal” in drawings) and the mice induced with NAFLD using a high-fat high-cholesterol diet and fructose-containing drinking water (denoted by “Control” in drawings) were used as the control group. Specifically, histological scoring was performed in the same manner as in the clinical pathology scoring as follows: score 0 when the area occupied by fat in the liver tissue is less than 5%, score 1 when the area occupied by fat in the liver tissue is 5% to 33%, score 2 when the area occupied by fat in the liver tissue is 34% to 66%, and score 3 when the area occupied by fat in the liver tissue exceeds 66%.
as §2

In experiment [6] the test system is mRNA expression levels of Srebp1, TIMP1 and Col1a1 in liver tissues. Briefly: Liver mRNA expression by qRT-PCR in mouse model of NAFLD induced by high-fat high-cholesterol diet (Example 1). The settings on record: 0.016% in diet, 12 weeks; vs Control group; relative to Normal group; FIG. 2.
From the text: as §3, §4, §1
On the technique in general: In qPCR the cycle at which signal appears reflects the starting amount.

Experiment [7] is described as follows: Blood lipid levels in STZ and high-fat diet NAFLD mouse model (Example 4). To be noted: 1 mg/kg, 3 mg/kg, and 10 mg/kg; compared to vehicle administered group; FIG. 7. As to the method: as §2, with “NAFLD. The mouse model is an experimental animal model that is known to be capable of inducing diseases ranging from diabetes, fatty liver, steatohepatitis, liver fibrosis, to liver cancer within a short period of time of 20 weeks of age.” for “NAFLD.”
Blood specimens were secured before autopsy by collecting blood samples from an experimental animal model prepared as in Example 2, in which NAFLD was induced by administering STZ and supplying a high-fat diet, and to which Compound 1 was administered at doses of 1 mg/kg, 3 mg/kg, and 10 mg/kg. The obtained blood samples were centrifuged to separate blood plasma, and the remaining samples were analyzed for blood lipid levels (e.g., levels of total cholesterol, high-density lipoprotein (HDL), and low-density lipoprotein (LDL)) using a biochemical analyzer (Hitachi 7100), and the results are shown in FIG. 7. […]

In the case of `CCCCC1(CCCC)CN(c2ccc(F)cc2)c2cc(SC)c(CNCC(=O)O)cc2S(=O)(=O)C1` [Compound 1, 2-(((3,3-dibutyl-5-(4-fluorophenyl)-7-methylthio-1,1-dioxido-2,3,4,5-tetrahydrobenzo[b][1,4]thiazepin-8-yl)methyl)amino)acetic acid], the “expression levels of the gene (mRNA) associated with lipid synthesis, inflammation, and fibrosis” value in experiment [1] is given as “significant decreases”. In addition, the steatosis score entry in experiment [2] was “significant decrease in steatosis score close to that of Normal group”. The “fibrosis area (Sirius Red positive area)” value in experiment [3] is listed as “significant decrease in the fibrosis area”. Besides, the “NAS (NAFLD activity score)” value in experiment [4] (compared to comparative groups OCA and Compound A at identical dose, FIG. 5) is reported as “significantly reduced NAS values”. In addition, in experiment [4] (n=8 mice per group), the “Steatosis Score 0 (number of mice)” value stood at 4, the “Hepatocyte Ballooning Score 0 (number of mice)” value worked out at 6, the “Steatosis Score 1 (number of mice)” value was 4 and the “Lobular Inflammation Score 1 (number of mice)” value is recorded as 2. Also, in experiment [4] (n=8 mice per group), the “Hepatocyte Ballooning Score 1 (number of mice)” value is listed as 1, the “Lobular Inflammation Score 2 (number of mice)” value came out at 5 and the “Lobular Inflammation Score 3 (number of mice)” value turned out to be 1. The “Hepatocyte Ballooning Score 2 (number of mice)” value in experiment [4] (n=8 mice per group, score 2 = Many cells/Prominent ballooning) is recorded as 1. In experiment [5] (1 mg/kg, 3 mg/kg and 10 mg/kg for 4 weeks, vs vehicle Control group), the steatosis score entry is recorded as “lower steatosis scores”. For the same compound, in experiment [5] (dose of 1 mg/kg for 4 weeks, vs vehicle), the steatosis score result is given as “reduced steatosis score”. In experiment [6], the “mRNA level of Col1a1 (liver)” value is listed as “remarkable decrease with statistical significance”, the “mRNA level of Srebp1 (liver)” value is “remarkable decrease with statistical significance” and the “mRNA level of TIMP1 (liver)” value is reported as “remarkable decrease with statistical significance”. Moreover, in experiment [7], the “blood level of HDL” value is recorded as “higher level of HDL” and the “blood level of LDL” value is “lower level of LDL”.

Regarding `CC[C@H]1[C@@H](O)[C@@H]2[C@H](CC[C@]3(C)[C@@H]([C@H](C)CCC(=O)O)CC[C@@H]23)[C@@]2(C)CC[C@@H](O)C[C@@H]12` [OCA, obeticholic acid, reference compound], in experiment [4] (n=8 mice per group), the “Steatosis Score 0 (number of mice)” value is given as 2, the “Hepatocyte Ballooning Score 0 (number of mice)” value came to 4, the “Steatosis Score 1 (number of mice)” value came to 6 and the “Lobular Inflammation Score 1 (number of mice)” value is 1. Besides, in experiment [4] (n=8 mice per group), the “Hepatocyte Ballooning Score 1 (number of mice)” value was found to be 4, the “Lobular Inflammation Score 2 (number of mice)” value is recorded as 5 and the “Lobular Inflammation Score 3 (number of mice)” value amounted to 2.

(Values after patent US11202783B2, “Use of aminoalkylbenzothiazepine derivatives” (CJ Healthcare Corporation, priority 2017, dated 2021).)
